Assay results: patent US20120128646A1, “METHODS AND COMPOSITIONS FOR THE TREATMENT OF AUTOIMMUNE DISEASE” (priority 2009, published 2012)
“Also recorded” adds a separate entry of the source. Where no end group is shown, it is not given here.

Tests used:
T cell clone BDC-2.5 = test: IFNγ production by T cell clone in antigen assay (ELISA); assay type: cell-based, NOD mouse; settings: peptide or preparation as antigen
Text: The T cell clones are maintained in culture by periodic re-stimulation with irradiated NOD splenocytes and islet cells or β-membrane. To assay for antigen, resting responder T cells (i.e., for example, the cells at the end of the two-week restimulation period) are co-cultured for 24 hr with elicited peritoneal macrophages (PEC) as APC and either a test sample or control antigen. Control antigen will be in the form of islet cells or the whole-cell membrane fraction (i.e., for example, a β-membrane fraction). As described above, unlysed β-membrane is stored in aliquots at −80° C. for this purpose. Negative controls include responder cells alone and responders plus APC.
At the end of the culture period, supernatants are collected from the cultures and IFNγ production is measured by ELISA. Wells positive for IFNγ are indicative of T cells responding to antigen; the amount of cytokine produced is calculated from a standard curve and is directly proportional to the amount of antigen present.
Antigenicity of islet cells, cellular and biochemical fractions, peptides, or insect cells expressing IA^g7-peptide constructs, was assessed through responses of T cell clones or hybridomas made by fusing T cell clones to the TCR^− version of T cell lymphoma, BW5147. White et al., “Two better cell lines for making hybridomas expressing specific T cell receptors” J Immunol 143:1822-1825 (1989). T cell clone cultures typically contained 2×10^4 responder T cells, 2.5×10^4 NOD peritoneal exudate cells (PEC) as APC, and antigen (SEC/IEX fractions, peptides, islet cells); all assays were performed with β-Mem as a positive control. IFNγ was measured by ELISA of culture supernatants. For cultures with T cell hybridomas, antigen/MHC activation was assessed by IL-2 production measured by a bioassay using the HT-2 T cell line. Walker et al., “Antigenspecific. I region-restricted interactions in vitro between tumor cell lines and T cell hybridomas” J Immunol 128:2164-2169 (1982). Synthetic peptides were either produced in the Molecular Resource Center at National Jewish Health or obtained from CHI Scientific, Maynard, Mass.

soluble IA^g7 = test: Peptide binding to IA^g7: competition with biotinylated HEL peptide; design: species or system NOD mouse; settings: competition with biotinylated pHEL 11 μM, pH 5.6, overnight
Text: FIG. 15B: A series of ChgA peptides tested for their ability to compete with a biotinylated HEL peptide for binding to soluble IA^g7. pS3-positive control peptide. IE^k moth cytochrome c-negative control peptide. N=2. Y axis: Percent of IA^g7-bound biotinylated HEL peptide as compared to IE^k. X axis: Log concentration of inhibitor peptide.
In order to confirm the unique binding register of the WE14 peptide, a series of peptides comprising N-terminal extensions and/or C-terminal deletions of WE14 were evaluated for their ability to stimulate the BDC-2.5 T cell clone (FIG. 6a) or to bind to IA^g7. See, FIG. 15A. […] See, FIG. 15B. Further, a pS3 mimotope was used as the positive control peptide and an irrelevant peptide from moth cytochrome c, pMCC, was the negative control peptide. The data were analyzed to determine the stimulatory or binding capacity of the peptides relative to WE14. See, FIG. 15C.
Soluble IA^g7 with covalently attached pHEL was treated with thrombin to cleave the linker attaching the peptide to the IA^g7 β chain. Kozono et al., “Production of soluble MHC class II proteins with covalently bound single peptides” Nature 369:151-154 (1994). Samples (0.5 μg) were incubated with a soluble biotinylated version of pHEL, Biotin-GGGMKRHGLDNYRGYSL (SEQ ID NO: 56) (11 μM), either alone or in the presence of various concentrations of potential competitors peptides, in 15 μL of pH 5.6 buffer overnight at room temperature. The sample was diluted to 100 μL of PBS in a well of a 96-well ELISA plate coated with an anti-IA^g7 monoclonal antibody, OX-6 (BD Pharmaceuticals). The captured IA^g7 was washed several times with PBS and the bound bio-pHEL detected with alkaline phosphatase coupled Extravadin (Sigma) and […].

BDC-2.5 T cell hybridoma = test: CD69 upregulation on T cell hybridoma co-cultured with insect cells infected with linked peptide I-A^g7 viruses; assay type: cell-based, mouse; settings: hybridomas 3 × 10^5/mL, 3 hrs co-culture with infected insect cells 1 × 10^5/mL
Description: (§1) FIG. 13F: The p3 glycine of pS3 was mutated to other amino acids. The effect of the mutations on early activation of the three BDC hybridomas was assessed by CD69 induction. The results are shown as the percent of cells expressing CD69 relative to those activated with the unmutated pS3 peptide. […] The sequences of the pS3 and ChgA peptide are also shown, highlighting the amino acids at the p3 position.
(§2) A mutational analysis was performed of 3 L mimotope at positions 2 and 3 followed by their respective ability to stimulate BDC-2.5, BDC-10.1 and BDC-5.10.3 hybridomas with 3 L mimotope substituted peptides. See, Table 3.

[1] = test system: BDC-10.1 T cell hybridoma; test: as above; assay type: cell-based, mouse; settings: hybridomas 3 × 10^5/mL, 3 hrs co-culture with infected insect cells 1 × 10^5/mL
Description: as §1, §2

[2] = test system: BDC-5.10.3 T cell hybridoma; test: as above; assay type: cell-based, mouse; settings: hybridomas 3 × 10^5/mL, 3 hrs co-culture with infected insect cells 1 × 10^5/mL
Description: as §1, §2

Substance | Stimulation of T cell clone BDC-2.5 (IFNγ response), result in words (T cell clone BDC-2.5) | IA^g7 binding, result in words (soluble IA^g7) | Stimulation BDC-2.5 (upregulation of CD69) (BDC-2.5 T cell hybridoma) | Stimulation BDC-10.1 (upregulation of CD69) [1] | Stimulation BDC-5.1.3 (upregulation of CD69) [2]
EDKRWSRMDQLAKELTAE [EE18, WE14 extended by 4 amino acids (EDKR)] | virtually eliminated | no effect |  |  | 
Enz: WE14 after transglutaminase modification (WSRMDQLAKELTAE; also: transglutaminase modification, site not given here) | highly antigenic |  |  |  | 
QWEDKRWSRMDQA | unable to stimulate |  |  |  | 
SRFGLWVRME |  |  | + (A positive response (+) indicates >40% of the hybridoma population stained above a background staining of 1% for unstimulated or of the same T cell hybridoma) | + (A positive response (+) indicates >40% of the hybridoma population stained above a background staining of 1% for unstimulated or of the same T cell hybridoma) | 
SRLALWVRME |  |  | + (A positive response (+) indicates >40% of the hybridoma population stained above a background staining of 1% for unstimulated or of the same T cell hybridoma) | + (A positive response (+) indicates >40% of the hybridoma population stained above a background staining of 1% for unstimulated or of the same T cell hybridoma) | + (A positive response (+) indicates >40% of the hybridoma population stained above a background staining of 1% for unstimulated or of the same T cell hybridoma)
SRLCLWVRME |  |  | + (A positive response (+) indicates >40% of the hybridoma population stained above a background staining of 1% for unstimulated or of the same T cell hybridoma) |  | + (A positive response (+) indicates >40% of the hybridoma population stained above a background staining of 1% for unstimulated or of the same T cell hybridoma)
SRLGLWVRME |  |  | + (A positive response (+) indicates >40% of the hybridoma population stained above a background staining of 1% for unstimulated or of the same T cell hybridoma) | + (A positive response (+) indicates >40% of the hybridoma population stained above a background staining of 1% for unstimulated or of the same T cell hybridoma) | + (A positive response (+) indicates >40% of the hybridoma population stained above a background staining of 1% for unstimulated or of the same T cell hybridoma)
SRLHLWVRME |  |  |  | + (A positive response (+) indicates >40% of the hybridoma population stained above a background staining of 1% for unstimulated or of the same T cell hybridoma) | + (A positive response (+) indicates >40% of the hybridoma population stained above a background staining of 1% for unstimulated or of the same T cell hybridoma)
SRLMLWVRME |  |  |  | + (A positive response (+) indicates >40% of the hybridoma population stained above a background staining of 1% for unstimulated or of the same T cell hybridoma) | + (A positive response (+) indicates >40% of the hybridoma population stained above a background staining of 1% for unstimulated or of the same T cell hybridoma)
SRLPLWVRME |  |  | + (A positive response (+) indicates >40% of the hybridoma population stained above a background staining of 1% for unstimulated or of the same T cell hybridoma) | + (A positive response (+) indicates >40% of the hybridoma population stained above a background staining of 1% for unstimulated or of the same T cell hybridoma) | + (A positive response (+) indicates >40% of the hybridoma population stained above a background staining of 1% for unstimulated or of the same T cell hybridoma)
SRLRLWVRME |  |  | + (A positive response (+) indicates >40% of the hybridoma population stained above a background staining of 1% for unstimulated or of the same T cell hybridoma) | + (A positive response (+) indicates >40% of the hybridoma population stained above a background staining of 1% for unstimulated or of the same T cell hybridoma) | + (A positive response (+) indicates >40% of the hybridoma population stained above a background staining of 1% for unstimulated or of the same T cell hybridoma)
SRLSLWVRME |  |  | + (A positive response (+) indicates >40% of the hybridoma population stained above a background staining of 1% for unstimulated or of the same T cell hybridoma) | + (A positive response (+) indicates >40% of the hybridoma population stained above a background staining of 1% for unstimulated or of the same T cell hybridoma) | + (A positive response (+) indicates >40% of the hybridoma population stained above a background staining of 1% for unstimulated or of the same T cell hybridoma)
SRLTLWVRME |  |  | + (A positive response (+) indicates >40% of the hybridoma population stained above a background staining of 1% for unstimulated or of the same T cell hybridoma) | + (A positive response (+) indicates >40% of the hybridoma population stained above a background staining of 1% for unstimulated or of the same T cell hybridoma) | + (A positive response (+) indicates >40% of the hybridoma population stained above a background staining of 1% for unstimulated or of the same T cell hybridoma)
SRLVLWVRME |  |  |  | + (A positive response (+) indicates >40% of the hybridoma population stained above a background staining of 1% for unstimulated or of the same T cell hybridoma) | + (A positive response (+) indicates >40% of the hybridoma population stained above a background staining of 1% for unstimulated or of the same T cell hybridoma)
SRLYLWVRME |  |  |  | + (A positive response (+) indicates >40% of the hybridoma population stained above a background staining of 1% for unstimulated or of the same T cell hybridoma) | + (A positive response (+) indicates >40% of the hybridoma population stained above a background staining of 1% for unstimulated or of the same T cell hybridoma)
WA8: sequential C-terminal truncation of WE14 (WSRMDQLA) | decreasing stimulatory activity |  |  |  | 
WL11: WE14 truncated by 3 C-terminal amino acids (WSRMDQLAKEL) | decreasing stimulatory activity | indistinguishable from the negative control peptide |  |  | 
WSRMD [WD5, shortest C-terminal truncation of WE14, motif only] | decreasing stimulatory activity; also recorded: lacked any activity at all |  |  |  | 
